# Test results published in patent publication US20040115710A1, “Method for assaying compounds that decrease the activity of poly (ADP-ribose)-Polymerase (PARP)” (Aventis Pharmaceuticals Inc., priority 2002, published 2004).
# Key:
# [1] = molecular target: Poly(ADP-Ribose)-Polymerase enzyme (PARP) (Homo sapiens, UniProt P09874, E70Q); experiment: Fluorescence polarization PARP inhibition assay (Texas Red-labeled NAD+ tracer, histone, DNA); format: biochemical; settings: standard (control) inhibitor of PARP, value given in materials table
# Text: (§1) The transfer of Texas Red-ADP ribose to protein substrates (histone and PARP itself) can be monitored through the rotational speed of the fluorescence tracer by the fluorescence polarization method. The assay measures the ability of the test compounds to inhibit the enzyme to transfer fluorescence labeled ADP to protein substrates.
# (§2) A PARP baculovirus which encodes the amino acid sequence of FIG. 6 (SEQ ID NO: 1), was used to infect sf(9) cells. After PARP was expressed, it was partially purified by 40-70% ammonia sulfate cuts, and then re-suspended in TRIS buffer containing 25% (v/v) glycerol. […]
# (§3) After incubation, this mixture and the control mixture were illuminated with plane polarized light having a wavelength of 590 nm, and the fluorescence polarization of the mixture and the control mixture were measured using a fluorescence filter set with an excitation wavelength of 590 nm, and an emission wavelength of 620 nm. The measurements were made with a fluorescence polarization plate reader in fluorescence polarization (FP) mode. These two measurements were then compared to determine whether the fluorescence polarization measurement of the mixture containing the compound or agent is less than that of the control. […]
# [2] = molecular target: T1, Poly(ADP-Ribose)-Polymerase enzyme (PARP) (Homo sapiens, UniProt P09874); experiment: as above; format: biochemical; settings: known inhibitor of PARP used as control compound; inhibition curve in FIG. 3
# T1 construct: IC50
# Text: as §1, §2, §3
# T1 sequence (P09874 whole entry): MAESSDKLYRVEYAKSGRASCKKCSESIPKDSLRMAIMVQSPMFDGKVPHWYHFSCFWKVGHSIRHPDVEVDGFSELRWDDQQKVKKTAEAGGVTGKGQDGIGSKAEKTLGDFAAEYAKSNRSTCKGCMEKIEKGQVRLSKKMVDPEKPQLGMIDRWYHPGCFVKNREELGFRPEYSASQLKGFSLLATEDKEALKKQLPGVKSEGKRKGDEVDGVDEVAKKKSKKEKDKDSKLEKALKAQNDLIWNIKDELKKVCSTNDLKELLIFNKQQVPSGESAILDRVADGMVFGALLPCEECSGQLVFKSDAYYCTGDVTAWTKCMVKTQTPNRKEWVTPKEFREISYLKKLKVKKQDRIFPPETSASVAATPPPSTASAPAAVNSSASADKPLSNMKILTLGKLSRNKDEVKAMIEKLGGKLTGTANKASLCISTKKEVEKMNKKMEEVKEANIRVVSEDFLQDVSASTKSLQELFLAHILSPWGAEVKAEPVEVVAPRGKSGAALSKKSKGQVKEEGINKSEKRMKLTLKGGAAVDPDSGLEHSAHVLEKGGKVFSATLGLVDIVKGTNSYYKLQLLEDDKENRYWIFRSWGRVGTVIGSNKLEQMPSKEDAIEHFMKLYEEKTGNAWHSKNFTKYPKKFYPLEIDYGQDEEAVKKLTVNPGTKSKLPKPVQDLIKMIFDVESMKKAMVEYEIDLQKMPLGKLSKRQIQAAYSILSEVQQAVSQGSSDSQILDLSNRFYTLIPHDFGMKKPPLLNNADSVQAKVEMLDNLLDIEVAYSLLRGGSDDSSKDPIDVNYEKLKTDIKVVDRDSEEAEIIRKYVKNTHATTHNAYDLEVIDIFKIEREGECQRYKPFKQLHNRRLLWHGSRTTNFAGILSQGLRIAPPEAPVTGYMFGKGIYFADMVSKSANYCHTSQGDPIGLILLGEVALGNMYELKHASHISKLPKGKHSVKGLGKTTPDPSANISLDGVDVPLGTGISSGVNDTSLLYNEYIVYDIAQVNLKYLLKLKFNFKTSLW
# Poly(ADP-Ribose)-Polymerase enzyme (PARP) (Homo sapiens, UniProt P09874, E70Q), sequence (P09874 whole entry E70Q): as the sequence (P09874 whole entry) above, with E70Q counted along it
IC50 [1],IC50 [2],SMILES
0.2 µM,,O=c1[nH]c2ccccc2c2ccccc12 [6(5H)-phenanthridinone]
,0.379 µM,"Oc1cccc2c(O)nccc12 [1,5-isoquinoline-diol]"
